Assay results taken from ChEMBL document CHEMBL1121708, “Synthesis and study of the potential antiallergic activity of some pyrazole derivatives” (1981).

Assays:
[1] = tested on: Rattus norvegicus; experiment: Compound was tested for inhibition of the rat passive cutaneous anaphylaxis (PCA) 1 hr after oral administration; >0<50; type: functional; parameters: concentration or dose not given beside the values
[2] = tested on: Rattus norvegicus; experiment: Compound was tested for inhibition of the rat passive cutaneous anaphylaxis (PCA) 3h after oral administration; >0<50; type: functional; parameters: concentration or dose not given beside the values

SMILES	Inhibition [1] [%]	Inhibition [2] [%]
c1ccc2c(c1)SCc1cn[nH]c1-2	>0	>0
c1ccc2c(c1)OCc1cn[nH]c1-2	>0	>0
COc1ccc2c(c1)CCc1c[nH]nc1-2	>0	>0
Oc1cccc2c1CCc1c[nH]nc1-2	>0	>0
c1ccc2c(c1)CCCc1c[nH]nc1-2	>0	>0
c1[nH]nc2c1CCC1c3n[nH]cc3CCC21 (stereo not drawn)	77	55
COc1ccc2c(c1)-c1n[nH]cc1CC2	32	>0
Oc1ccc2c(c1)CCc1c[nH]nc1-2	>0	>0
COc1cccc2c1CCc1c[nH]nc1-2	15	>0
CC1Cc2c[nH]nc2-c2ccccc21 (stereo not drawn)	>0	>0
Nc1ccc2[nH]ncc2c1	>0	54
Oc1ccc2c(c1)-c1n[nH]cc1CC2	>0	>0
CCc1cc2c(cc1CC)-c1n[nH]cc1CC2	>0	>0
c1ccc2c(c1)CCc1c[nH]nc1-2	>0	>0
